Results taken from PubChem BioAssay (NCI).
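1) Cells in 96-well plates. 2) Compound, 48 h, 5 concentrations. 3) Linear interpolation between surrounding doses. 4) Unreached endpoint = highest concentration. Definition used: TGI = concentration required for complete inhibition of growth.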

Assays:
Assay in all cases: NCI anticancer screen, dose series, 48 h
[1] = test system: OVCAR-5 ovarian
[2] = test system: NCI-H226 lung
[3] = test system: HCC-2998 colon
[4] = test system: U251 CNS
[5] = test system: HOP-92 NSCLC
[6] = test system: SW-620 colon
[7] = test system: NCI-H23 lung
[8] = test system: CAKI-1 renal
[9] = test system: SK-OV-3 ovarian
[10] = test system: SK-MEL-2 melanoma
[11] = test system: A549 NSCLC
[12] = test system: LOX IMVI melanoma
[13] = test system: HOP-62 NSCLC
[14] = test system: COLO 205 colon
[15] = test system: MCF7 breast
[16] = test system: NCI/ADR-RES ovarian
[17] = test system: SNB-75 CNS
[18] = test system: MDA-MB-231 breast
[19] = test system: BT-549 breast

| Compound | TGI [1] [µM] | TGI [2] [µM] | TGI [3] [µM] | TGI [4] [µM] | TGI [5] [µM] | TGI [6] [µM] | TGI [7] [µM] | TGI [8] [µM] | TGI [9] [µM] | TGI [10] [µM] | TGI [11] [µM] | TGI [12] [µM] | TGI [13] [µM] | TGI [14] [µM] | TGI [15] [µM] | TGI [16] [µM] | TGI [17] [µM] | TGI [18] [µM] | TGI [19] [µM] |
| --- | --- | --- | --- | --- | --- | --- | --- | --- | --- | --- | --- | --- | --- | --- | --- | --- | --- | --- | --- |
| COC(=O)c1ccc(Cc2ccc(C(=O)OC)o2)o1 | > 378 | > 378 | > 378 | > 378 | > 378 | > 378 | > 378 | > 378 | > 378 | > 378 | > 378 | > 378 | > 378 | > 378 |  |  |  |  |  |
| COc1c(O)c2c(=O)cc(OC)c3c4c(OC)cc(=O)c5c(O)c(OC)c6c(c(c1C(C(C)=O)C6C(C)O)c23)c54 (stereo unspecified) | 1.28 | 3.65 | 1.06 | 0.603 | 1.4 | 0.469 | 1.33 |  | 2.49 |  | 3.06 | 0.32 | 0.632 |  | 1.54 | 1.58 | 1.42 | 1.88 |  |
| C/C=C/C(=O)N1C(=O)OC[C@@H]1c1ccccc1 | 31.7 | 39.6 | 41.3 | 48.5 | 37.2 | 54.6 | 32.8 | 32.6 | 33.3 | 36.9 | 36.3 | 35 | 41.1 | 39.1 | 31.5 | 44.4 | 27.1 | 39.8 |  |
| CSc1nc2[nH]c(=O)c(C)nc2c(=O)[nH]1 | > 100 |  | > 100 | > 100 | > 100 | > 100 | > 100 | > 100 | > 100 | > 100 | > 100 | > 100 | > 100 | > 100 |  |  | > 100 |  |  |
| Cc1c2c(n(CCN(C)C)c1C)NN=C(C#N)S2(=O)=O | > 100 | > 100 | > 100 | > 100 |  | > 100 | > 100 |  | > 100 | > 100 | > 100 | > 100 | > 100 | > 100 | > 100 | > 100 | > 100 | > 100 |  |
| COc1cc(/C=C2/C(=O)N(C(=O)c3ccc(Cl)cc3)N=C2C)cc(OC)c1OC | > 100 |  | > 100 | > 100 | > 100 | > 100 | > 100 | > 100 | > 100 | > 100 | > 100 | > 100 |  | > 100 |  |  |  |  |  |
| COc1cc2c(cc1OC)C(=O)C(C1=C(SC(=N)N)C(=O)c3cc(OC)c(OC)cc31)C2 (stereo unspecified) | > 100 | > 100 | > 100 | > 100 |  | > 100 | > 100 | > 100 | > 100 | > 100 | > 100 | > 100 | > 100 | > 100 |  |  | > 100 |  |  |
| [N-]=[N+]=NC(CBr)c1cn([C@H]2C[C@H](O)[C@@H](CO)O2)c(=O)[nH]c1=O (stereo partly specified) | > 100 | > 100 | > 100 | > 100 | > 100 | > 100 | > 100 | > 100 | > 100 | > 100 | > 100 | > 100 | > 100 | > 100 |  |  | > 100 |  |  |
| CCOC(=O)c1ccc(-n2c(SCC)nc3sc(C)c(C)c3c2=O)cc1 | > 100 | > 100 | > 100 | > 100 | > 100 | > 100 | > 100 | > 100 | > 100 | > 100 | > 100 | > 100 | > 100 | > 100 |  |  | > 100 |  |  |
| Cn1c2cc(O)cc(O)c2c(=O)c2c([N+](=O)[O-])cccc21 | > 100 | > 100 | > 100 | > 100 | > 100 | > 100 | > 100 | > 100 | > 100 | > 100 | > 100 | > 100 | > 100 | > 100 |  |  | > 100 |  |  |
| O=c1cc(-c2ccccc2)oc2cc(OCCSCCCCCCCCCCSCCOc3ccc4c(=O)cc(-c5ccccc5)oc4c3)ccc12 |  |  | > 100 | > 100 | > 100 | > 100 | > 100 | > 100 | > 100 | > 100 | > 100 | > 100 | > 100 | > 100 |  |  | > 100 |  |  |
| COC(=O)[C@@]12OC[C@]34C([C@@H](O)C1O)[C@@]1(C)CC(=O)C(OC(=O)/C=C(/c5ccccc5)C(F)(F)F)=C(C)C1C[C@H]3OC(=O)[C@H](O)[C@H]42 (stereo partly specified) | > 50 | 29.5 | 22.3 | > 50 | 43.7 |  | 19.7 | > 50 | > 50 | 27.4 | > 50 |  | 46.1 | 30.2 |  |  | 31.3 |  |  |
| O=C1/C(=C/c2ccco2)N=C(c2ccccc2)N1c1cc2cc(Sc3ccccc3)ccc2[nH]1 | > 25 |  |  |  | > 25 | > 25 | > 25 | > 25 |  | > 25 | > 25 | > 25 |  | > 25 | > 25 | > 25 | > 25 |  | > 25 |
| COc1cc([C@@H]2c3cc4c(cc3[C@@H](NC(=O)c3cccc(F)c3)C3COC(=O)[C@@H]32)OCO4)cc(OC)c1O (stereo partly specified) | 33 | 2.2 | 11.3 | 1.94 | 89.6 | 16.2 | 3.18 | 22.5 | 5.78 | 18 | 2.62 | 15.1 | 1.94 | 22.1 |  |  | 5.24 |  |  |
| C=CCN(C)CN(C)c1nc(N(C)C)nc(N(C)C)n1 | > 100 |  | > 100 | > 100 | > 100 | > 100 | > 100 | > 100 | > 100 | > 100 | > 100 | > 100 | > 100 | > 100 |  |  | > 100 |  |  |
